Test results from article PMC3025325, “Identification of a κ-opioid agonist as a potent and selective lead for drug development against human African trypanosomiasis” (Biochemical Pharmacology, 2010).
Structures can show the parent of a compound that is named as a salt. Where two headings read alike, the source gives them in different places.

Tests used:
[1] = system: bloodstream forms of Trypanosoma brucei; experiment: Resazurin cell viability assay, EC50 determinations against T. brucei; assay type: cell-based, T. b. brucei (strain 427); conditions: read-out: EC50 vs. T. brucei
MRC5 cells = experiment: Resazurin cell viability counter-screen, EC50 determinations against mammalian cells; assay type: cell-based, human; conditions: for EC50: read-out: EC50 vs. MRC5
T. brucei = experiment: DMSO tolerance of the resazurin assay, T. brucei; assay type: cell-based
Method: (§1) DMSO was serially diluted across a 96-well plate in 200 μl of the appropriate medium. For T. brucei, 100 μl aliquots were then transferred to a plate containing 100 μl cells at 2 × 10^3 ml^−1. Human fibroblasts were plated at 2 × 10^4 ml^−1 in 100 μl of medium and incubated overnight to allow cells to adhere before the addition of medium containing DMSO (100 μl) over a range of concentrations. Parasites and mammalian cells were then incubated for 3 days, after which 20 μl 500-μM resazurin was added to each well. Plates were incubated for a further 4 h before measuring fluorescence as above.

human fibroblasts (MRC5) = experiment: DMSO tolerance of the resazurin assay, human fibroblasts; assay type: cell-based
Method: as §1

[2] = Trypanosoma brucei, 72 h, LOPAC hits (library screening), 3 days incubation, mean of 3 determinations weighted to standard error
[3] = Homo sapiens, MRC5, 72 h, 3 days incubation, mean of 4 determinations weighted to standard error

Row | SMILES | EC50 ([1]; Trypanosoma brucei, 72 h) [nM] | Selectivity (MRC5 cells) | EC50 (MRC5 cells; Homo sapiens, MRC5, 72 h) [nM] | other results
1 | CCn1cnc2c(Nc3cccc(Cl)c3)nc(N[C@@H]3CCCC[C@@H]3N)nc21.Cl (relative stereo) [CGP-74514A, N^2-(cis-2-Aminocyclohexyl)-N^6-(3-chlorophenyl)-9-ethyl-9H-purine-2,6-diamine HCl] | 210 ± 8.3 | 7.1 | 1500 ± 620 | 
2 | O=C(O)c1cc[c]([Hg][Cl])cc1 [4-Chloromercuribenzoic acid] |  | 27 |  | EC50 [1]: 690 ± 85 nM
3 | CCCn1c(=O)c2[nH]c(C3CCCC3)nc2n(CCC)c1=O [8-Cyclopentyl-1,3-dipropylxanthine] | 530 ± 53 | 31 |  | 
4 | CC[C@@]1(O)C(=O)OCc2c1cc1n(c2=O)Cc2cc3ccccc3nc2-1 [(S)-(+)-Camptothecin] |  | 1.5 |  | EC50 [1]: 530 ± 13 nM; EC50 (MRC5 cells): 800 ± 99 nM
5 | O=C1Cc2c([nH]c3ccc([N+](=O)[O-])cc23)-c2ccccc2N1 [Alsterpaullone] | 400 ± 40 | 1.3 | 510 ± 170 | 
6 | CC1(C)CCC2=C(O1)c1ccccc1C(=O)C2=O [Beta-Lapachone] | 850 ± 130 | 10 | 8600 ± 2900 | 
7 | CNc1ccc2oc(C[C@H]3O[C@@]4(CC[C@H]3C)O[C@H]([C@H](C)C(=O)c3ccc[nH]3)[C@H](C)C[C@H]4C)nc2c1C(=O)O [Calcimycin] | 180 ± 13 | 4.2 | 750 ± 140 | 
8 | Clc1ccc(C(c2ccc(Cl)cc2)n2cc[n+](CC(OCc3ccc(Cl)cc3Cl)c3ccc(Cl)cc3Cl)c2)cc1 (stereo not shown) [Calmidazolium chloride] | 510 ± 66 | 13 | 6600 ± 750 | 
9 | COc1ccc2c(c[n+](C)c3c4cc5c(cc4ccc23)OCO5)c1OC [Chelerythrine chloride] |  | 42 |  | EC50 [1, 2]: 59 ± 5.7 nM; EC50 (MRC5 cells; [3]): 2500 ± 480 nM
10 | C[S+](C)[O-] [DMSO] |  |  |  | IC50 of DMSO (T. brucei; 3 days incubation): 0.80 ± 0.06 % (v/v); Attenuation of fluorescence (T. brucei; DMSO 0.5%): 20%; IC50 of DMSO (human fibroblasts (MRC5); 3 days incubation): 1.04 ± 0.08 % (v/v); Attenuation of fluorescence (human fibroblasts (MRC5); DMSO 0.5%): 15%
11 | Cc1cc(N)c2ccccc2[n+]1CCCCCCCCCC[n+]1c(C)cc(N)c2ccccc21 [Dequalinium dichloride] | 43 ± 8.8 | 140 | 6100 ± 1500 | Selectivity / specificity for T. brucei over human fibroblasts (MRC5 cells): greater than 100 fold
12 | CC(C)[C@@]1(NC(=O)[C@@H]2C[C@@H]3c4cccc5[nH]cc(c45)C[C@H]3N(C)C2)O[C@@]2(O)[C@@H]3CCCN3C(=O)[C@H](Cc3ccccc3)N2C1=O.CS(=O)(=O)O [Dihydroergocristine methanesulfonate] |  | 23 |  | EC50 [1]: 890 ± 57 nM
13 | c1ccc2c(c1)[I+]c1ccccc1-2 [Diphenyleneiodonium chloride] | 120 ± 7.6 | 5.7 | 700 ± 870 | 
14 | Cc1c2ccncc2c(C)c2c1[nH]c1ccccc12 [Ellipticine] |  | 3.7 |  | EC50 [1, 2]: 460 ± 45 nM; EC50 (MRC5 cells; [3]): 1700 ± 620 nM
15 | CC[C@H]1CN2CCc3cc(OC)c(OC)cc3[C@@H]2C[C@@H]1C[C@H]1NCCc2cc(OC)c(OC)cc21 [Emetine dihydrochloride hydrate] |  |  |  | EC50 [1, 2]: 7.9 ± 0.53 nM; EC50 (MRC5 cells; [3]): 30 ± 3.1 nM
16 | CC(=O)[C@]1(O)Cc2c(O)c3c(c(O)c2[C@@H](O[C@H]2C[C@H](N)[C@H](O)[C@H](C)O2)C1)C(=O)c1ccccc1C3=O [Idarubicin] | 20 ± 1.5 | 3.9 | 78 ± 29 | 
